One data set concerns the target MCL-1 (Homo sapiens (Human), UniProt Q07820, K194A/K197A/R201A). As to the kind of experiment: Protein-protein interaction assay MCL-1/Noxa BH3 peptide (MCL-1 assay), TR-FRET. Format: binding. The settings on record: MCL-1/Noxa BH3 peptide TR-FRET; median. An outline of the steps: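 TR-FRET competition between MBP-MCL-1 (173-321, 1 nM) and biotin-Noxa BH3 peptide (1 nM) with anti-MBP-Eu/streptavidin-XL665; 11 compound levels 0.1 nM–20 μM, 10 min preincubation. Incubated 1 h at 22 °C then overnight at 4 °C, pH 7 Tris buffer. 665/620 ratio normalized to DMSO and no-MCL-1; 4-parameter IC50.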
(Time-resolved FRET reads energy transfer from a long-lived donor to a nearby acceptor.)

Data set [1] deals with SUDHL5. The data set can be described thus: Induction of caspase-3/7 activity, SUDHL5 (Assay 4). Format: cell-based. Conditions: Homo sapiens, SU-DHL-5, 3 h, SUDHL5 cells, Caspase-Glo 3/7, median. The procedure, abridged: (§1)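 DLBCL lines treated with compounds for 3 h at 37° C.; caspase-3/7 activity read by Caspase-Glo 3/7 luminescence. Medium-only background subtracted; EC50 fitted with bottom fixed at 1 and top set to reference compound's maximal induction.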

The test system of data set [2] is SUDHL10. As to the kind of experiment: Induction of caspase-3/7 activity, SUDHL10 (Assay 4). Format: cell-based. The settings on record: Homo sapiens, SU-DHL10, 3 h, SUDHL10 cells, Caspase-Glo 3/7, median. The procedure, abridged: as §1
The subject of data set [3] is SUDHL5. The data set can be described thus: Antiproliferation assay SUDHL5 (Assay 7). Format: cell-based. The settings on record: Homo sapiens, SU-DHL-5, 72 h, SUDHL5 cells, CellTiter-Glo, median, read-out: IC50 Antiproli SUDHL5 [M] (median). An outline of the steps: (§2)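 Proliferation is determined by CellTiter-Glo luminescence following 72 h incubation with compound at 37 °C, relative to a time-zero plate measured at plating.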

Another data set relates to MV-4-11. As to the kind of experiment: Antiproliferation assay MV-4-11 (Assay 7). Format: cell-based. The settings on record: MV-4-11 cells, CellTiter-Glo, single determinations, read-out: IC50 Antiproli MV-4-11. An outline of the steps:
as §2
A general note: ATP-based viability assays read luminescence as a measure of living cells.

The subject of another data set is AMO-1. The data set can be described thus: Antiproliferation assay AMO-1 (Assay 7). Format: cell-based. The settings on record: Homo sapiens, AMO1, 72 h, AMO-1 cells, CellTiter-Glo, single determinations, read-out: IC50 Antiproli AMO-1. An outline of the steps: as §2
A further data set has as its system SK-BR-3. The data set can be described thus: Antiproliferation assay SK-BR-3 (Assay 7). Conditions: Homo sapiens, SK-BR-3, 72 h, SK-BR-3 cells, CellTiter-Glo, single determinations, read-out: IC50 Antiproli SK-BR-3. Format: cell-based. Here is the method:
Assessment of the Anti-Proliferative Effect of Compounds in Different Cell Lines
The impact of compounds on the proliferation of different cell lines was assessed using the CellTiter-Glo® Luminescent Cell Viability reagent from Promega (G7573).
In parallel, cells were plated in a reference (day 0) plate for time zero determination.
Rim wells were excluded. The cells were incubated for 72 h hours in a humidified incubator at 37° C. The day 0 plate was measured by adding 30 μL/well of CTG solution (CellTiter-Glo® Luminescent Cell Viability reagent, Promega G7573) to time zero wells in the reference plate followed by a 10 minutes incubation and luminescence reading at 0.1 ms. using the PHERAstar FS microplate reader (BMG Labtech).
After 72 h incubation, the treated plates were measured in the same way as the day 0 plate mentioned above.

The subject of another data set is A2780. The data set can be described thus: Antiproliferation assay A2780 (Assay 7). Format: cell-based. The settings on record: A2780 cells, CellTiter-Glo, single determinations, read-out: IC50 Antiproli A2780. An outline of the steps:
as §2

Data set [4] relates to SUDHL5. As to the kind of experiment: Induction of cytotoxicity, SUDHL5 (Assay 6). Conditions: Homo sapiens, SU-DHL-5, 5 h, read-out: IC50 Cytotox SUDHL5 [M] (median), SUDHL5 cells, 5 h, CellTiter-Glo.
Experimental: In principle, compounds that induce apoptosis will concomitantly induce cell cytotoxicity. Therefore, cytotoxicity assays were run in parallel in SUDHL5 and SUDHL10 cells.
The different cell lines were plated in culture medium (RPMI 1640 [GIBCO #22400-089] supplemented with 10% Fetal Bovine Serum) at a density of 3,300 cells in 30 μl/well in a sterile, solid black, flat bottom, polystyrene, TC-treated 384-well microplate (Corning #3571) using Multidrop Combi Reagent Dispenser. As a control, medium without cells was also added to the plate. Cells were incubated in a humidified incubator at 37° C. overnight. On the next day, the cells were treated with compounds (stock solution, 10 mM in DMSO) using the HP D300 Digital Dispenser in a concentration range of 3.3×10e-5 M (33 μM) to 5×10e-9 M (5 nM) in a single-dot curve with at least 16 dilutions and a DMSO concentration of 0.33%. Rim wells were excluded. The cells were incubated for 5 h hours in a humidified incubator at 37° C. After this incubation, 30 μl of CellTiter-Glo® Luminescent Cell Viability reagent (Promega, G7573) was added to each well using the Multidrop Combi Reagent Dispenser, followed by 15 min incubation on a shaker at room temperature. Finally, luminescence was read at 0.1 ms, with a gain of 3000 using the PHERAstar FS microplate reader (BMG Labtech).
The Bella DRC Master Sheet was used to calculate IC50s, with fixed CI=0 and C0=1.
Data set [5] has as its system SUDHL10. As to the kind of experiment: Induction of cytotoxicity, SUDHL10 (Assay 6). Conditions: Homo sapiens, SU-DHL10, 5 h, read-out: IC50 Cytotox SUDHL10 [M] (median), SUDHL10 cells, 5 h, CellTiter-Glo.
For data set [6] the following is noted: amine bond, Cs2CO3.

From patent US11286263B2, “Macrocyclic fluorine substituted indole derivatives” (The Broad Institute, Inc., priority 2017, dated 2022) come the findings set out here.

As usually defined, the IC50 is the concentration needed to halve the response being measured. For orientation: EC50 means the midpoint of the concentration-response curve. A higher EC50 goes with weaker potency.

Where “and” joins values, the source holds several entries; their conditions need not be identical. Equal entries are not always repeated. Where two headings read alike, the source gives them in different places.

Chain of MCL-1 (Q07820 whole entry K194A/K197A/R201A, looked up): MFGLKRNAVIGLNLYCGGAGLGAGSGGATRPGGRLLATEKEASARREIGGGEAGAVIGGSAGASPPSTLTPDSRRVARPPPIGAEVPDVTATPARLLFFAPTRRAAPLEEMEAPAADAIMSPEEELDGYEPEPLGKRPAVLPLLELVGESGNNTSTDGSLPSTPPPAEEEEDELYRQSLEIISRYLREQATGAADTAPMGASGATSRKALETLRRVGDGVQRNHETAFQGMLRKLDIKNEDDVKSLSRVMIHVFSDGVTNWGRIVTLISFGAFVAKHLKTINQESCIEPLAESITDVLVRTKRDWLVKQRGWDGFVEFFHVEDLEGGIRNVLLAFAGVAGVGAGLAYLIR

Turning to `CCc1c2c(nn1C)COCCCCn1c(C(=O)O)c(CCCOc3cccc4ccccc34)c3ccc(F)c-2c31` (racemic) [Example 6, (rac)-3-ethyl-4-fluoro-2-methyl-7-[3-(naphthalen-1-yloxy)propyl]-2,10,11,12,13,15-hexahydro-pyrazolo[4′,3′:9,10][1,6]oxazacycloundecino[8,7,6-hi]indole-8-carboxylic acid], the IC50 is 1.1 nM on MCL-1; 9.8e-07 M in the data set on SUDHL5 [3]; 3830 nM in the data set on MV-4-11 (Homo sapiens, MV4-11, 72 h); 2820 nM and 2760 nM and 2350 nM in the data set on MV-4-11 (72 h, listed as 06); 2630 nM with AMO-1; 7290 nM with SK-BR-3. Also, the IC50 in the data set with A2780 (72 h, listed as 06) was 10600 nM and 13100 nM; in the data set on A2780 (Homo sapiens, A2780, 72 h) it was 14500 nM; with SUDHL5 [4] it was 6.4e-07 M; with SUDHL10 [5], 1.3e-06 M. Besides, the concentration for a half-maximal effect (EC50) in the data set with SUDHL5 [1] came to 400 nM; in the data set on SUDHL10 [2] it was 1100 nM.

As for `CCOC(=O)c1c(CCCOc2cccc3ccccc23)c2ccc(F)c3c2n1CCCCNCc1nn(C)c(C)c1-3`, the ring closure, yield of all isomers in data set [6] (from CCOC(=O)c1c(CCCOc2cccc3ccccc23)c2ccc(F)c(-c3c(CBr)nn(C)c3C)c2n1CCCCN, DMF, 10.0 mM, 65.0 °C, 17.0 h) was found to be 48.6%.

Consider `CCOC(=O)c1c(CCCO)c2ccc(F)c3c2n1CCCCN(C)Cc1nn(C)c(CC)c1-3`, for which the ring closure, yield of all isomers in data set [6] (from CCOC(=O)c1c(CCCO[Si](C)(C)C(C)(C)C)c2ccc(F)c(-c3c(CBr)nn(C)c3CC)c2n1CCCCN(C)C(=O)OC(C)(C)C, acetonitrile, 44.5 mM, 60.0 °C, 6.0 h, 2 steps) stood at 46%.
